From ChEMBL document CHEMBL4033767, “Structure-Guided Strategy for the Development of Potent Bivalent ERK Inhibitors” (ACS Med Chem Lett, 2017) come the findings set out here.

One may read the pIC50 as the IC50 on a negative log10 scale, so that one unit is a factor of ten. For orientation: pKd means the Kd on a negative log10 scale, so that one unit is a factor of ten.

pIC50, pKd: −log10 of the molar value. Residues, ends and D or L forms follow the SMILES beside them. *: point of attachment. X1 = Nc1nn(CC(=O)*)c2nnc(-c3c(-c4ccccc4)nn4ccccc34)cc12; PEG4 = NCCOCCOCCOCCOCCC(=O)O Where only a bound is given, the exact number is not on record here.

The species entered for experiment [1] is Homo sapiens. The experiment in a line: Selectivity ratio of compound affinity for C-terminal FLAG-tagged human ERK2 to C-terminal FLAG-tagged human p38 alpha.
The target in experiment [2] is T1, Mitogen-activated protein kinase 1 (Homo sapiens, UniProt P28482). The experiment in a line: Inhibition of phosphorylated ERK2 (unknown origin) using myelin basic protein as substrate after 2 hrs in presence of ATP by ADP-glo assay. On the technique in general: ADP-Glo turns the ADP formed in a reaction into a luminescent signal.
Experiment [3] concerns the target Mitogen-activated protein kinase 11 (Homo sapiens) (UniProt Q15759). The experiment in a line: Inhibition of full length wild type human p38beta (M1 to Q364 residues) expressed in bacterial expression system assessed as residual activity at 2 uM by KINOMEscan assay.
The target in experiment [4] is Mitogen-activated protein kinase 10 (Homo sapiens) (UniProt P53779). The experiment in a line: Inhibition of full length wild type human JNK3 (M1 to Q382 residues) expressed in mammalian expression system assessed as residual activity at 2 uM by KINOMEscan assay.
Experiment [5] deals with Mitogen-activated protein kinase 8 (Homo sapiens) (UniProt P45983). The experiment in a line: Inhibition of full length wild type human JNK1 (M1 to Q384 residues) expressed in mammalian expression system assessed as residual activity at 2 uM by KINOMEscan assay.
Experiment [6] concerns the target Mitogen-activated protein kinase 9 (Homo sapiens) (UniProt P45984). The experiment in a line: Inhibition of full length wild type human JNK2 (M1 to Q382 residues) expressed in mammalian expression system assessed as residual activity at 2 uM by KINOMEscan assay.
Experiment [7] addresses Mitogen-activated protein kinase 3 (Homo sapiens) (UniProt P27361). The experiment in a line: Inhibition of full length wild type human ERK1 (M1 to P379 residues) expressed in bacterial expression system assessed as residual activity at 2 uM by KINOMEscan assay.
The target of experiment [8] is Mitogen-activated protein kinase 14 (Homo sapiens) (UniProt Q16539). The experiment in a line: Inhibition of full length wild type human p38alpha (M1 to S360 residues) expressed in bacterial expression system assessed as residual activity at 2 uM by KINOMEscan assay.
In experiment [9] the target is Glycogen synthase kinase-3 beta (Homo sapiens, UniProt P49841). The experiment in a line: Binding affinity to full length wild type human GSK3beta (M1 to T433 residues) expressed in mammalian expression system by KINOMEscan assay.
In experiment [10] the target is T1, Mitogen-activated protein kinase 1. The experiment in a line: Binding affinity to non-phosphorylated full length N-terminal His6-tagged/SUMO-fused ERK2 (1 to 360 residues) (unknown origin) by isothermal titration method. Background: Isothermal titration calorimetry measures the heat released or taken up as one component is titrated into another.

T1 sequence (P28482 whole entry, the tested form may be a part): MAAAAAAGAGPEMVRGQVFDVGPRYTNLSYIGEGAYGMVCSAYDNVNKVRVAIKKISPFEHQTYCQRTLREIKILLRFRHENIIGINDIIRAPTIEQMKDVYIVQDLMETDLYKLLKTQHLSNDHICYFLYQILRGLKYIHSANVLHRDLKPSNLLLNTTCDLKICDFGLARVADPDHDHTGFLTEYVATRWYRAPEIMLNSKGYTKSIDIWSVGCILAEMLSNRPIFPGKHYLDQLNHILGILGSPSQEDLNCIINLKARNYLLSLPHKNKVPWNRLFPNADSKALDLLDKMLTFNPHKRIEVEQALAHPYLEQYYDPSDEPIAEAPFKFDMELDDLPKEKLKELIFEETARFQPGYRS
Chain of Mitogen-activated protein kinase 8 (Homo sapiens) (P45983 whole entry, the tested form may be a part): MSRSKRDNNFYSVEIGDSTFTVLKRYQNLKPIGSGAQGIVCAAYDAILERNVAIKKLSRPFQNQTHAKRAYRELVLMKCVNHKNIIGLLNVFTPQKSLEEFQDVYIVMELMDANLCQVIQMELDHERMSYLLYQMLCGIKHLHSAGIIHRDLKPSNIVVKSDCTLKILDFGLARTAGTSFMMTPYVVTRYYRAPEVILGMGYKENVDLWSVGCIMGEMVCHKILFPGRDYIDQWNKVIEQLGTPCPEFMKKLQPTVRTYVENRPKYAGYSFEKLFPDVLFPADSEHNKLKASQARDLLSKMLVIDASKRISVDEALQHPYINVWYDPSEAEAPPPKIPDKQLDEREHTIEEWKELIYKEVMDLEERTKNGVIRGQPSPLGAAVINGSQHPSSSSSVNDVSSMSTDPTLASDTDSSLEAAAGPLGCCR
Chain of Glycogen synthase kinase-3 beta (P49841 whole entry, the tested form may be a part): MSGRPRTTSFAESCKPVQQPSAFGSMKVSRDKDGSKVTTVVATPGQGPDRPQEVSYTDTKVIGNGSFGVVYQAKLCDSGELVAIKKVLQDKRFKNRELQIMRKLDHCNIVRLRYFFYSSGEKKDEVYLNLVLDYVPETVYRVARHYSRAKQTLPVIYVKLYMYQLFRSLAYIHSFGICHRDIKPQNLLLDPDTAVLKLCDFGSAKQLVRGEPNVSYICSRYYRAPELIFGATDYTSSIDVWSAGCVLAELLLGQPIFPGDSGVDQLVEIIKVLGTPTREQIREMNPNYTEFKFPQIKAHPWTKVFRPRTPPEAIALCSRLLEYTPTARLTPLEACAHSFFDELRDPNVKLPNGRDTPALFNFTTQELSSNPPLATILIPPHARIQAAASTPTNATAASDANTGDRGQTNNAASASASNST
Chain of Mitogen-activated protein kinase 11 (Homo sapiens) (Q15759 whole entry, the tested form may be a part): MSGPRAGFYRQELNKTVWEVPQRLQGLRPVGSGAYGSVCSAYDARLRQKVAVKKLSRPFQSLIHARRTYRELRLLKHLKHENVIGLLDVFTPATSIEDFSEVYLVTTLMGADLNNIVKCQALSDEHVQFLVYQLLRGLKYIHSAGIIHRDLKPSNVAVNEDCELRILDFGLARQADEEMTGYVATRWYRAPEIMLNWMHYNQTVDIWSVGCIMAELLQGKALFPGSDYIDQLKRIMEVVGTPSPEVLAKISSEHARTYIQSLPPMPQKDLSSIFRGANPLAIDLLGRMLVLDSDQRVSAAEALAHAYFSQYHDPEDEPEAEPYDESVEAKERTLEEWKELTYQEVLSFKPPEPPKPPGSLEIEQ
Chain of Mitogen-activated protein kinase 10 (Homo sapiens) (P53779 whole entry, the tested form may be a part): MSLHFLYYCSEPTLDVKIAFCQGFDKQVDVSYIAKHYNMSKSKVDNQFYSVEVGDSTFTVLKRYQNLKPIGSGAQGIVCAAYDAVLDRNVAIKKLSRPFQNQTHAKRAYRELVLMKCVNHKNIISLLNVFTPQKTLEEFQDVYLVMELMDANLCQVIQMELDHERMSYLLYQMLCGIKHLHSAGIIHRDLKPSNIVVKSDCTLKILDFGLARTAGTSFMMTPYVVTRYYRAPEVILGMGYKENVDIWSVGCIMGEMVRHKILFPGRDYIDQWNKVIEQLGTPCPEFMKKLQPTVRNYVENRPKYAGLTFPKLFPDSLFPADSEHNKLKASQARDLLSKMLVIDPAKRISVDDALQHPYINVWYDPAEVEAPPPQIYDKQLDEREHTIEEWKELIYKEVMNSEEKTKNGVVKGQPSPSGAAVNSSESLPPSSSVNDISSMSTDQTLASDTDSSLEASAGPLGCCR
Chain of Mitogen-activated protein kinase 14 (Homo sapiens) (Q16539 whole entry, the tested form may be a part): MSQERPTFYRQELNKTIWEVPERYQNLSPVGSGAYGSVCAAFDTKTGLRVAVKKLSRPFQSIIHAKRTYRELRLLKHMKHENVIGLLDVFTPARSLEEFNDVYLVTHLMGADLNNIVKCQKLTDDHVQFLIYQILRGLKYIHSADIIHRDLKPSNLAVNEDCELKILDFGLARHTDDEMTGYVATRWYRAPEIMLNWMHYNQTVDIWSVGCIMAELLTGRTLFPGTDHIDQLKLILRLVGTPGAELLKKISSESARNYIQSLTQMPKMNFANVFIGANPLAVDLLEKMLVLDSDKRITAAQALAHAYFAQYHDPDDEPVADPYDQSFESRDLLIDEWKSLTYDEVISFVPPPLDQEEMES
Chain of Mitogen-activated protein kinase 3 (Homo sapiens) (P27361 whole entry, the tested form may be a part): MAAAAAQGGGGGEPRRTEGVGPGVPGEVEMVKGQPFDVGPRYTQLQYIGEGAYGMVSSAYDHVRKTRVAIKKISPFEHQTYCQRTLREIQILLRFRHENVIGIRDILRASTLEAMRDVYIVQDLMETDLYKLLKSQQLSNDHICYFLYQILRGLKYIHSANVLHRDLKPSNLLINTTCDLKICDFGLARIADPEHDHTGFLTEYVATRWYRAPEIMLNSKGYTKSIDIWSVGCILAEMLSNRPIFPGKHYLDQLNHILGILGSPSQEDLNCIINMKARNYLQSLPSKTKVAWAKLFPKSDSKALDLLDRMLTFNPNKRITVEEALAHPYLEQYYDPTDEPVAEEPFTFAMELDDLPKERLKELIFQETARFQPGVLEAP
Chain of Mitogen-activated protein kinase 9 (Homo sapiens) (P45984 whole entry, looked up, the tested form may be a part): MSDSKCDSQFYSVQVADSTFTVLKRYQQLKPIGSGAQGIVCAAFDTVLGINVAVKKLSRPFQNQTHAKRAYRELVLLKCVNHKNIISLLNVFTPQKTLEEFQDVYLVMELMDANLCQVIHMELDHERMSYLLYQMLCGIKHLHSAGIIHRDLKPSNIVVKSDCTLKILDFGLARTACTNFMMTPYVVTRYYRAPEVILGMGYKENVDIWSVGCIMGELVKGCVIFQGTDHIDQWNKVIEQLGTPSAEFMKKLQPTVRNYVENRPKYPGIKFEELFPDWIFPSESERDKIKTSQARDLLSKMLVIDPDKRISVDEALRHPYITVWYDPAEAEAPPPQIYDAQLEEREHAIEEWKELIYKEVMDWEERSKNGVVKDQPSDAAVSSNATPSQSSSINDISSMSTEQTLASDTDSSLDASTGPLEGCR

Consider H-PQLKPIESSILAQRRVRKLPSTTL-OH, for which, in experiment [1], the Selectivity ratio was determined as 20.
With `CC[C@H](C)[C@H](NC(=O)[C@H](CO)NC(=O)[C@H](CO)NC(=O)[C@H](CCC(=O)O)NC(=O)[C@@H](NC(=O)[C@@H]1CCCN1C(=O)[C@H](CCCCN)NC(=O)[C@H](CC(C)C)NC(=O)[C@H](CCC(N)=O)NC(=O)[C@H](C)NC(=O)[C@@H](NC(=O)CCOCCOCCOCCOCCNC(=O)Cn1nc(N)c2cc(-c3c(-c4ccccc4)nn4ccccc34)nnc21)[C@@H](C)O)[C@@H](C)CC)C(=O)N[C@@H](CC(C)C)C(=O)N[C@@H](C)C(=O)N[C@@H](CCC(N)=O)C(=O)N[C@@H](CCCNC(=N)N)C(=O)N[C@@H](CCCNC(=N)N)C(=O)N[C@H](C(=O)N[C@@H](CCCNC(=N)N)C(=O)N[C@@H](CCCCN)C(=O)N[C@@H](CCCNC(=N)N)C(=O)N[C@@H](CCCCN)C(=O)N[C@@H](CCCCN)C(=O)N[C@@H](CCCNC(=N)N)C(=O)N[C@@H](CCCNC(=N)N)C(=O)N[C@@H](CCC(N)=O)C(=O)N[C@@H](CCCNC(=N)N)C(=O)N[C@@H](CCCNC(=N)N)C(=O)N[C@@H](CCCNC(=N)N)C(=O)O)C(C)C` ({X1-PEG4}-TAQLKPIESSILAQRRVRKRKKRRQRRR-OH), the pIC50 in experiment [2] was 7.85.
For `CC[C@H](C)[C@H](NC(=O)[C@H](CO)NC(=O)[C@H](CO)NC(=O)[C@H](CCC(=O)O)NC(=O)[C@@H](NC(=O)[C@@H]1CCCN1C(=O)[C@H](CCCCN)NC(=O)[C@H](CC(C)C)NC(=O)[C@H](CCC(N)=O)NC(=O)[C@H](C)NC(=O)[C@@H](NC(=O)CNC(=O)C(N)CCCCn1cc(CCCCNC(=O)CCCCCn2nc(N)c3cc(-c4c(-c5ccccc5)nn5ccccc45)nnc32)nn1)[C@@H](C)O)[C@@H](C)CC)C(=O)N[C@@H](CC(C)C)C(=O)N[C@@H](C)C(=O)N[C@@H](CCC(N)=O)C(=O)N[C@@H](CCCNC(=N)N)C(=O)N[C@@H](CCCNC(=N)N)C(=O)N[C@H](C(=O)N[C@@H](CCCNC(=N)N)C(=O)N[C@@H](CCCCN)C(=O)O)C(C)C` (some centres not stated), the Activity in experiment [3] amounted to 11%; in [4], 0.1%; in experiment [5], 0.1%; in experiment [6] it was 0.1%; in experiment [7] it was 0.15%; in experiment [8], 0.25%. Further, the pKd in experiment [9] is less than 5.60.
On to `CC[C@H](C)[C@H](NC(=O)[C@H](CCC(=O)O)NC(=O)CCOCCOCCOCCOCCNC(=O)Cn1nc(N)c2cc(-c3c(-c4ccccc4)nn4ccccc34)nnc21)C(=O)N[C@H](C(=O)N[C@@H](CCCCN)C(=O)N[C@@H](CC(C)C)C(=O)N[C@@H](C)C(=O)N1CCC[C@H]1C(=O)N1CCC[C@H]1C(=O)N1CCC[C@H]1C(=O)N[C@@H](CCCCN)C(=O)N[C@@H](CCCCN)C(=O)N[C@@H](C)C(=O)O)[C@@H](C)CC` ({X1-PEG4}-EIIKLAPPPKKA-OH), for which, in [2], the pIC50 is 6.15.
Turning to H-EIIKLAPPPKKA-OH, in [10], the pKd is 4.74.
Regarding `Nc1nn(CC(=O)O)c2nnc(-c3c(-c4ccccc4)nn4ccccc34)cc12`, the pIC50 in [2] is 4.91.
